How the values were obtained:
PLC-β = test: ATP-stimulated PLC activity ([3H]-inositol phosphate accumulation) in MDCK cells; type: cell-based, canine; conditions: for Effect on ATP-stimulated PLC (PLC-β) activity: 100 μM ATP; for Effect on ATP-stimulated PLC (PLC-β) activity / IC50: MDCK cells; for IC50: 30 minutes with compound, then 15 minutes stimulation, mean ± SD, read-out: IC50(PLC) (concentration causing fifty percent decrease in ATP- or EGF-stimulated accumulation of [3H]-inositol phosphates)
Description: (§1) Measurement of activity of PLC in MDCK cells was determined by an adaptation of a previously published method (Schachter, J. B., et al. (1997) Neuropharm. 36:1181-1187). MDCK cells were seeded at 400,000 cells/well in a 12-well plate and subsequently cultured for four days. MDCK cell monolayers were then labeled with [^3H]-myo-inositol (1.6 μCi/well in 0.4 ml of inositol-free media) for 24 hours at 37° C. Assays were initiated on labeled cells that were removed from the incubator by immediately supplementing the cells with 100 μl of 250 mM HEPES (pH 7.3), containing 100 mM LiCl with or without compound. Subsequently, the cells were incubated for 30 minutes at 37° C. Immediately after the termination of this incubation, ATP (final concentration: 100 μM) or EGF (20 ng/ml) was added.
(§2) The cells were then incubated at 37° C. for 15 minutes to allow accumulation of [^3H]-inositol phosphates. Incubations were terminated by aspiration of the media and the addition of 1 ml of boiling 10 mM EDTA (pH 8.0). The supernatant was applied to AG1 X8 formate columns for chromatographic isolation of [^3H]-inositol phosphates (Berridge, M. J., et al. (1983) Biochem. J. 212:473-482). The amount of [^3H]-inositol phosphates was measured by liquid scintillation counting in a Packard Tri Carb 4000 Series spectrophotometer. Data from each experiment were normalized to the response observed with 100 μM ATP or 20 ng/ml EGF and were reported as the mean±SD of three experiments performed in triplicate. The IC50 (PLC) was determined by the concentration of compound that causes a 50% decrease in ATP- or EGF-stimulated accumulation of [^3H]-inositol phosphates.
To determine the ability alkylphosphocholines to inhibit PLC activity, the ability of these compounds to inhibit the ATP-mediated increases in the levels of inositol phosphates was determined. The separation between the counts from basal and ATP-stimulated levels of [^3H]-inositol-phosphates from MDCK cell monolayers was, however, marginal (approximately 1.5-fold) for a reliable determination of the ability of alkylphosphocholines to inhibit PLC activity. To increase this separation, MDCK cells that were transfected with a plasmid that encoded the P2Y2 receptor were employed. The P2Y2 receptor is G-protein coupled receptor that activates PLC (Pawelczyk, T., and Lowenstein, J. M. (1993) Biochem. Pharm. 45:493-497). The separation between the counts from basal and ATP-stimulated levels of [^3H]-inositol-phosphates from MDCK monolayers that express P2Y2 receptors increased to approximately a 3-fold difference (counts from basal and ATP-stimulated levels of [^3H]-inositol-phosphates ranged from 200 to 400 and 700 to 1200 cpm, respectively).

MDCK cell monolayers [1] = test: Effect on transepithelial electrical resistance (TEER) across MDCK cell monolayers; type: cell-based, canine; conditions: for Effect on TEER: 30-minute treatment; for EC50: 0.5 h, MDCK cells, apical, 30-minute incubation at 37° C., mean ± SD, read-out: EC50 (concentration required to decrease TEER by fifty percent)
Description: (§3) For transport studies, MDCK cells, derived from normal proximal epithelial kidney cells of a male cocker spaniel, which is model for transport experiments (Cho, M. J., et al. (1989) Pharm. Res. 6:71-77), were grown on TRANSWELL™ multi-well plates. Each well was seeded with 200,000 cells. The cells were then grown in cell media (MEM with 1% antibiotic, supplemented with 10% fetal bovine serum (FBS) and 1% NEAA), and were maintained at 37° C. and 5% CO2. Confluent cells were grown for four days where they differentiated into epithelial cell monolayers as evidenced by the establishment of a stable TEER.
TEER (expressed as Ω·cm^2) serves as a measure of functional integrity of tight junctions. TEER was measured by an EVOM Epithelial Tissue Voltohmeter (World Precision Instruments, Sarasota, Fla.) and an Endohm-12 electrode (World Precision Instruments, Sarasota, Fla.). TEER values of MDCK cells that formed a functional monolayer ranged between 150-250 Ω·cm^2.
Experiments were initiated by adding 0.5 mL of HBSS supplemented with 10 mM HEPES, pH 7.4 (transport buffer) containing compound or vehicle to the apical side of the TRANSWELL™ multi-well plate. […] Data from each experiment were normalized to the response from the vehicle and were reported as the mean±SD of three experiments performed in triplicate.
The effect of akylphosphocholines on TEER was evaluated at several concentrations, and the concentration that caused a 50% decrease in TEER with respect to the untreated control was defined as EC50 (Liu, D. Z., et al. (1999) J. Pharm. Sci. 88:1161-1168; Liu, D. Z., et al. (1999) J. Pharm. Sci. 88:1169-1174).

MDCK cell monolayers [2] = test: Effect on [14C]-mannitol flux across MDCK cell monolayers; type: cell-based, canine; conditions: for EC10x (concentration that increases mannitol flux by ten fold): MDCK cells, apical, flux measured between 30 and 60 minutes of treatment, mean ± SD
Description: as §3
Mannitol, a hydrophilic compound, cannot readily cross the epithelial membrane, and must transverse the epithelium via the paracellular pathway. Therefore, the flux of mannitol through the epithelium is a reflection of the permeability of the paracellular pathway. Detection of mannitol is accomplished with [^3H] or [^14C] radiolabels.
The integrity of the tight junctions of cell monolayers was monitored with the measurement of TEER prior to the experiment. Transport experiments were initiated by replacing the apical media with 0.5 mL of transport buffer containing compound or vehicle, and [^14C]-mannitol. Concentration of [^14C]-mannitol was 25 μM (55 mCi/mmol). Transport rates were monitored by the measurement of the amount of [^14C]-mannitol accumulated in the basolateral side (1.5 mL) during two 30-minute intervals. The amount of radiolabeled [^14C]-mannitol transported was measured by liquid scintillation counting in a Packard Tri Carb 4000 Series spectrophotometer available from Packard Instrument Company of Meriden, Conn. All transport experiments were carried out under sink conditions (transport experiments were designed such that less than 10% of the total amount of [^14C]-mannitol was present on the basolateral side at any given time). The effect of alkylphosphocholines on the transport of [^14C]-mannitol was normalized to the transport of [^14C]-mannitol in the vehicle-treated cells and was reported as the mean±SD of three experiments performed in triplicate. The EC10x was determined by the concentration of compound that causes a 10-fold increase in mannitol flux with respect to the vehicle treated control.

PLC-γ = test: EGF-stimulated PLC activity ([3H]-inositol phosphate accumulation) in MDCK cells; type: cell-based, canine; conditions: 20 ng/ml EGF
Description: as §1, §2

PLC = conditions: Perrella et al. 1994; cited from earlier work
[3] = in animals; cited from earlier work

SMILES	Effect on ATP-stimulated PLC (PLC-β) activity (PLC-β)	IC50 (PLC-β)	EC50 (MDCK cell monolayers [1]; Canis lupus familiaris)	EC10x (concentration that increases mannitol flux by ten fold) (MDCK cell monolayers [2])	Effect on EGF-stimulated PLC-γ activity (PLC-γ)	further results
COc1ccc2c(c1)CCC1C2CCC2(C)C(NCCCCCCN3C(=O)C=CC3=O)CCC12 (centres unmarked) [U-73,122, reference compound]	inhibited ATP-stimulated PLC-β activity	7 ± 3 µM	6 ± 2 µM	6 ± 2 µM	had no effect on EGF-stimulated PLC-γ activity	Effect on TEER (MDCK cell monolayers [1]): potently decreased TEER; Effect on mannitol flux (MDCK cell monolayers [2]; interval between 30 and 60 minutes of treatment): increased mannitol flux
CCCCCCCCCCCCOP(=O)([O-])OCC[N+](C)(C)C [C12, Dodecylphosphocholine]	–	275 ± 135 µM	733 ± 32 µM	900 ± 100 µM	–	Full extent of PLC inhibition (PLC-β; ATP-stimulated inositol phosphate production): 50%
CCCCCCCCCCCCCCCCOP(=O)([O-])OCC[N+](C)(C)C [C16, Hexadecylphosphocholine]	inhibited ATP-stimulated PLC-β activity	36 ± 18 µM	29 ± 5 µM	30 ± 8 µM	had no effect on EGF-stimulated PLC-γ activity	activity at 30 µM (MDCK cell monolayers [1]; Canis lupus familiaris, MDCK, 2 h, 30 μM, over a two-hour period, read-out: TEER, % of control values): < 10%
O=c1oc2cc(O)ccc2cc1[N+](=O)[O-] [7-hydroxy-3-nitrocoumarin]	–	–	–	–	–	PLC inhibition, previously reported (PLC): previously reported not to inhibit PLC
CCCCCCCCCCCCCCCCCCCCOP(=O)([O-])OCC[N+](C)(C)C [C20]	–	48 ± 5 µM	71 ± 8 µM	73 ± 1 µM	–	–
CCCCCCCCCCCCCCCCCCOP(=O)([O-])OCC[N+](C)(C)C [C18]	–	30 ± 2 µM	59 ± 8 µM	66 ± 11 µM	–	–
COc1ccc2c(c1)CC[C@@H]1[C@@H]2CC[C@]2(C)[C@@H](NCCCCCCN3C(=O)CCC3=O)CC[C@@H]12 [U-73,343, reference compound]	did not decrease TEER or ATP-stimulated PLC activity	–	–	–	–	Effect on TEER (MDCK cell monolayers [1]): did not decrease TEER
CO[C@@]1(NC(=O)Cc2cccs2)C(=O)N2C(C(=O)O)=C(COC(N)=O)CS[C@@H]21 [cefoxitin]	–	–	–	–	–	Oral bioavailability [3]: less than five percent
CCCCCCCCCCCCCCOP(=O)([O-])OCC[N+](C)(C)C [C14]	–	73 ± 9 µM	44 ± 11 µM	91 ± 11 µM	–	–
O=c1oc2ccccc2cc1[N+](=O)[O-] [3-nitrocoumarin, reference compound]	no inhibitory activity toward PLC-β	21 ± 5 µM	24 ± 1 µM	34 ± 5 µM	inhibited EGF-stimulated PLC-γ activity	–

— patent US7713949B2, “Compositions and methods for enhancing paracellular permeability across epithelial and endothelial barriers” (The University of North Carolina at Chapel Hill, priority 2000, dated 2010)
